Assay results taken from ChEMBL document CHEMBL5046244, “Targeted Covalent Inhibition of Small CTD Phosphatase 1 to Promote the Degradation of the REST Transcription Factor in Human Cells” (J Med Chem, 2022).
Calls of active or inactive are those of the source. The calls are words filed in the database; no cut-off is given here.

Target: T1, Carboxy-terminal domain RNA polymerase II polypeptide A small phosphatase 1 (Homo sapiens) (UniProt Q9GZU7)
T1 sequence (whole entry): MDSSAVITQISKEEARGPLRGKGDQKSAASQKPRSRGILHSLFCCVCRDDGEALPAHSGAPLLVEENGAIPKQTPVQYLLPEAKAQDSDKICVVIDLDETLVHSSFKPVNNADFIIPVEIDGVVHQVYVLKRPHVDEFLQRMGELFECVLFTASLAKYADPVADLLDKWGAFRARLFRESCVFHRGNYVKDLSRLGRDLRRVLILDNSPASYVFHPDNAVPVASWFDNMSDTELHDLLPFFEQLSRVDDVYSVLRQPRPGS
Experiment: Binding affinity to wild type human SCP1 assessed as covalent bond formation at 50 uM incubated for 18 hrs

Activity: inactive
Structure (SMILES): C#CCCC(=O)NCCCNC(=O)C1=Cc2ccccc2S1(=O)=O
